Laboratory results from US20200121677A1, “SUBSTITUTED 6,7-DIHYDROPYRAZOLO[1,5-a]PYRAZINES AS NEGATIVE ALLOSTERIC MODULATORS OF MGLUR2 RECEPTORS” (Janssen Pharmaceutica NV, priority 2014, published 2020).
Counter-ions that a name gives are not always drawn. Like-named read-outs stand apart in the source and are kept apart here.

Experiments:
[1] = target: human mGlu2 receptor (Homo sapiens, UniProt Q14416); test: [35S]GTPγS binding assay, mGluR2 negative allosteric modulation (membranes from CHO cells transfected with human mGlu2 receptor, glutamate ~EC80 60 μM); conditions: for IC50: GTPγS - hmGluR2 anGT pIC50, membranes with human mGlu2 receptor;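 for all read-outs here: membranes preincubated 30 min at 30 °C with compound plus glutamate, then [35S]GTPγS (0.1 nM) incorporation measured over another 30 min at 30 °C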
human mGlu2 receptor, sequence (Q14416 19-872): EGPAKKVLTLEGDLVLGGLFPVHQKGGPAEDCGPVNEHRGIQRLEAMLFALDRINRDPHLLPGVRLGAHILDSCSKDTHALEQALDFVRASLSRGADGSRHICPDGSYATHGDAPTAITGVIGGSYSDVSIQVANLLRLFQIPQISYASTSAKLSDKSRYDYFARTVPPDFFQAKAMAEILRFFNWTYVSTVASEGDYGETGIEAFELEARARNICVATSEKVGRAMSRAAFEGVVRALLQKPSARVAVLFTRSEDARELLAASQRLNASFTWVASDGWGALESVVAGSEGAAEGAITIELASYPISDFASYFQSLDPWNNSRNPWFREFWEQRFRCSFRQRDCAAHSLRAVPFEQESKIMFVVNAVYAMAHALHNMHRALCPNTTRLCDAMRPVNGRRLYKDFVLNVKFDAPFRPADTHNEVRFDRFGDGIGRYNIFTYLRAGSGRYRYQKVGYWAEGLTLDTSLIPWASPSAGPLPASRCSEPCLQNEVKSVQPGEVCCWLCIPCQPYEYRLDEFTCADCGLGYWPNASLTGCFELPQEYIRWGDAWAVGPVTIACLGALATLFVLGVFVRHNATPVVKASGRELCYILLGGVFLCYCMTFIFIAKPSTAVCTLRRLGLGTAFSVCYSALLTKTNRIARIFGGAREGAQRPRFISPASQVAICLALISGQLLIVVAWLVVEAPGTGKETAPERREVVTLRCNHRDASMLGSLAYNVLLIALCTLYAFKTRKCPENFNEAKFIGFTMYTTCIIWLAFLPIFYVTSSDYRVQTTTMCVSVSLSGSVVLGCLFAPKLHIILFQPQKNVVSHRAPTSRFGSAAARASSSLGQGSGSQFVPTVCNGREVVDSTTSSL
Experimental: The [^35S]GTPγS binding assay is a functional membrane-based assay used to study G-protein coupled receptor (GPCR) function whereby incorporation of a non-hydrolysable form of GTP, [^35S]GTPγS (guanosine 5′-triphosphate, labelled with gamma-emitting ^35S), is measured. […] Here we describe the use of the [^35S]GTPγS binding assay using membranes from cells transfected with the human mGlu2 receptor and adapted from Schaffhauser et al. (Molecular Pharmacology, 2003, 4:798-810) for the detection of the negative allosteric modulation (NAM) properties of the compounds of this invention.
CHO-cells were cultured to pre-confluence and stimulated with 5 mM butyrate for 24 h. Cells were then collected by scraping in PBS and cell suspension was centrifuged (10 min at 4000 RPM in benchtop centrifuge). Supernatant was discarded and pellet gently resuspended in 50 mM Tris-HCl, pH 7.4 by mixing with an Ultra Turrax homogenizer. The suspension was centrifuged at 12,400 RPM (Sorvall F14S-6x250Y) for 10 minutes and the supernatant discarded. The pellet was homogenized in 5 mM Tris-HCl, pH 7.4 using an Ultra Turrax homogenizer and centrifuged again (13,000 RPM, 20 min, 4° C.). The final pellet was resuspended in 50 mM Tris-HCl, pH 7.4 and stored at −80° C. in appropriate aliquots before use. Protein concentration was determined by the Bradford method (Bio-Rad, USA) with bovine serum albumin as standard.
Measurement of mGluR2 negative allosteric modulatory activity of test compounds was performed as follows. Test compounds and glutamate were diluted in assay buffer containing 10 mM HEPES acid, 10 mM HEPES salt, pH 7.4, 100 mM NaCl, 3 mM MgCl2 and 10 μM GDP. Human mGlu2 receptor-containing membranes were thawed on ice and diluted in assay buffer supplemented with 18 μg/ml saponin. Membranes were pre-incubated with compound together with a predefined (˜EC80) concentration of glutamate (60 μM) for 30 min at 30° C. After addition of [^35S]GTPγS (f.c. 0.1 nM), assay mixtures were shaken briefly and further incubated to allow [^35S]GTPγS incorporation on activation (30 minutes, 30° C.). Final assay mixtures contained 7 μg of membrane protein in 10 mM HEPES acid, 10 mM HEPES salt, pH 7.4, 100 mM NaCl, 3 mM MgCl2, 10 μM GDP and 10 μg/ml saponin. Total reaction volume was 200 μl. Reactions were terminated by rapid filtration through Unifilter-96 GF/B plates (Perkin Elmer, Massachusetts, USA) using a 96-well filtermate universal harvester. Filters were washed 6 times with ice-cold 10 mM NaH2PO4/10 mM Na2HPO4, pH 7.4. Filters were then air-dried, and 30 μl of liquid scintillation cocktail (Microscint-O) was added to each well. Membrane-bound radioactivity was counted in a Topcount.
Data were calculated as % of the control glutamate response, defined as the response that is generated upon addition of an EC80-equivalent concentration of glutamate.

[2] = glutamate ~EC80 (60 μM), pIC50 = -log IC50 (M)
[3] = read-out: GTPγS - hmGluR2 anGT Emax, relative maximal effect: maximal % inhibition relative to the control glutamate response

| melting point [°C] | IC50 [1, 2] [M] | Emax [1, 3] [%] | GTPγS - hmGluR2 anGT pIC50 ([1]; membranes with human mGlu2 receptor, glutamate ~EC80 (60 μM), pIC50 = -log IC50 (M)) | GTPγS - hmGluR2 anGT Emax ([1]; relative maximal effect: maximal % inhibition relative to the control glutamate response) [%] | SMILES | Emax ([1]; read-out: GTPγS - hmGluR2 anGT Emax) [%] |
| --- | --- | --- | --- | --- | --- | --- |
| 275 | 1.35e-06 | 95 | – | – | C[C@H]1CN(c2ccc(C(F)(F)F)cc2)C(=O)c2c(C(N)=O)cnn21 [compound 73, (7S)-7-methyl-4-oxo-5-[4-(trifluoromethyl)phenyl]-6,7-dihydropyrazolo [1,5-a]pyrazine-3-carboxamide] | – |
| 68.3 | 1.7e-07 | 107 | – | – | C[C@H]1CN(c2ccc(C(F)(F)F)cc2)C(=O)c2c(C(=O)NCC3CCOC3)cnn21 (stereo partly drawn) [compound 64] | – |
| 172.9 | 9.55e-10 | 128 | – | – | C[C@H]1CN(c2ccc(Cl)c(Cl)c2)C(=O)c2c(C(=O)Nc3cncc(F)n3)cnn21 [compound 146] | – |
| 209.8 | 1.78e-07 | 107 | – | – | C[C@H]1CN(c2ccc(C(F)(F)F)cc2)C(=O)c2c(C(=O)NC3CCCCC3)cnn21 [compound 65] | – |
| 204.9 | 2.57e-08 | 109 | – | – | C[C@H]1CN(c2ccc(C(F)(F)F)cc2)C(=O)c2c(C(=O)Nc3ncco3)cnn21 [compound 139] | – |
| 198.2 | 3.09e-09 | 107 | – | – | C[C@H]1CN(c2ccc(C(F)(F)F)cc2)C(=O)c2c(C(=O)Nc3ccc(S(C)(=O)=O)cc3)cnn21 [compound 6] | – |
| 200.8 | 1.38e-08 | 115 | – | – | COc1cnccc1NC(=O)c1cnn2c1C(=O)N(c1ccc(C(F)(F)F)cc1)C[C@@H]2C [compound 16] | – |
| 204 | 3.24e-09 | 107 | – | – | C[C@H]1CN(c2ccc(C(F)(F)F)c(F)c2)C(=O)c2c(C(=O)Nc3cncc(F)c3)cnn21 [compound 24] | – |
| 204.6 | 1.82e-08 | 113 | – | – | C[C@H]1CN(c2ccc(C(F)(F)F)cc2)C(=O)c2c(C(=O)NCC3CCC3)cnn21 [compound 58] | – |
| 211.11 | 8.51e-10 | 110 | – | – | Cc1c(F)cncc1NC(=O)c1cnn2c1C(=O)N(c1ccc(Cl)c(Cl)c1)C[C@@H]2C [compound 130] | – |
| 182 | 1.66e-09 | 112 | – | – | Cc1cc(N2C[C@H](C)n3ncc(C(=O)Nc4cncc(F)c4C)c3C2=O)ccc1Cl [compound 79] | – |
| 164.7 | 2.4e-07 | 109 | – | – | COc1cccnc1NC(=O)c1cnn2c1C(=O)N(c1ccc(C(F)(F)F)cc1)C[C@@H]2C [compound 11] | – |
| 192.95 | 2.14e-08 | 113 | – | – | COc1ccccc1NC(=O)c1cnn2c1C(=O)N(c1ccc(C(F)(F)F)c(OC)n1)C[C@@H]2C [compound 122] | – |
| 160.4 | 2.29e-08 | 109 | – | – | COCc1cc(N2C[C@H](C)n3ncc(C(=O)Nc4ccccn4)c3C2=O)ccc1C(F)(F)F [compound 31] | – |
| 229.9 | 1.23e-07 | 111 | – | – | O=C(Nc1cccnc1)c1cnn2c1C(=O)N(c1ccc(C(F)(F)F)cc1)CC2 [compound 153] | – |
| 203.08 | 1.55e-08 | 111 | – | – | COc1nc(N2C[C@H](C)n3ncc(C(=O)Nc4ccccc4)c3C2=O)ccc1Cl [compound 83, (7S)-5-(5-Chloro-6-methoxy-2-pyridyl)-7-methyl-4-oxo-N-phenyl-6,7-dihydropyrazolo[1,5-a]pyrazine-3-carboxamide] | – |
| 213.44 | 2.88e-09 | 106 | – | – | Cc1cc(NC(=O)c2cnn3c2C(=O)N(c2ccc(C(F)(F)F)c(Cl)c2)C[C@@H]3C)on1 [compound 128] | – |
| 181.5 | 3.16e-09 | 107 | – | – | C[C@H]1CN(c2ccc(C(F)(F)F)c(F)c2)C(=O)c2c(C(=O)Nc3cnccn3)cnn21 [compound 113] | – |
| 159.8 | 3.55e-08 | 103 | – | – | C[C@H]1CN(c2ccc(C(F)(F)F)cc2)C(=O)c2c(C(=O)NCC3CCCC3)cnn21 [compound 59] | – |
| 214.9 | 1.41e-09 | 113 | – | – | COc1cncc(NC(=O)c2cnn3c2C(=O)N(c2ccc(C(F)(F)F)c(Cl)c2)C[C@@H]3C)c1 [compound 51] | – |
| 146.4 | – | – | – | – | C[C@H]1CN(c2ccc(C(F)(F)F)cc2)C(=O)c2c(C(=O)Nc3cncc(F)c3)cnn21 (as salt: HCl) [13a] | – |
| 186.7 | 7.08e-08 | 104 | – | – | CC(NC(=O)c1cnn2c1C(=O)N(c1ccc(C(F)(F)F)cc1)C[C@@H]2C)C1CC1 (single isomer, unassigned) [compound 61] | – |
| 212.65 | 1.66e-07 | 114 | – | – | CC(=O)NC(=O)c1cnn2c1C(=O)N(c1ccc(C(F)(F)F)cc1)C[C@@H]2C [compound 138] | – |

| melting point [°C] | IC50 [1, 2] [M] | Emax [1, 3] [%] | GTPγS - hmGluR2 anGT pIC50 ([1]; membranes with human mGlu2 receptor, glutamate ~EC80 (60 μM), pIC50 = -log IC50 (M)) | GTPγS - hmGluR2 anGT Emax ([1]; relative maximal effect: maximal % inhibition relative to the control glutamate response) [%] | SMILES | Emax ([1]; read-out: GTPγS - hmGluR2 anGT Emax) [%] |
| --- | --- | --- | --- | --- | --- | --- |
| 104.2 | 1.55e-06 | 104 | – | – | C[C@H]1CN(c2ccc(C(F)(F)F)cc2)C(=O)c2c(C(=O)NCc3ccc(N)nc3)cnn21 [compound 136, (7S)—N-[(6-Amino-3-pyridyl)methyl]-7-methyl-4-oxo-5-[4-(trifluoromethyl)phenyl]-6,7-dihydropyrazolo[1,5-a]pyrazine-3-carboxamide] | – |
| 171.6 | 2e-08 | 113 | – | – | Cc1ncccc1NC(=O)c1cnn2c1C(=O)N(c1ccc(C(F)(F)F)cc1)C[C@@H]2C [compound 10] | – |
| 169.28 | 8.13e-09 | 107 | – | – | C[C@H]1CN(c2ccc(C(F)(F)F)cc2)C(=O)c2c(C(=O)Nc3ccnc(CO)c3)cnn21 [compound 150] | – |
| 208.2 | 7.08e-08 | 111 | – | – | C[C@H]1CN(c2ccc(C(F)(F)F)cc2)C(=O)c2c(C(=O)NC3CCC3)cnn21 [compound 71] | – |
| 168.1 | 1.74e-09 | 108 | – | – | C[C@H]1CN(c2ccc(C(F)(F)F)c(Cl)c2)C(=O)c2c(C(=O)Nc3cncc(F)c3)cnn21 [compound 50] | – |
| 201.6 | 8.13e-09 | 116 | – | – | COc1cc(N2C[C@H](C)n3ncc(C(=O)Nc4cc(C)nc(C)c4)c3C2=O)ccc1C(F)(F)F [compound 143] | – |
| 224.9 | 1.86e-08 | 103 | – | – | Cc1cc(NC(=O)c2cnn3c2C(=O)N(c2ccc(C(F)(F)F)c(C#N)c2)C[C@@H]3C)ccn1 [compound 91] | – |
| 148.8 | 1.17e-07 | 99 | – | – | Cc1cc(CNC(=O)c2cnn3c2C(=O)N(c2ccc(C(F)(F)F)cc2)C[C@@H]3C)ccn1 [compound 63] | – |
| 94.5 | 1.48e-07 | 114 | – | – | Cc1cc(NC(=O)c2cnn3c2C(=O)N(c2ccccc2)C[C@@H]3C)ccn1 [compound 97] | – |
| 246.7 | 3.55e-09 | 109 | – | – | Cc1cncc(NC(=O)c2cnn3c2C(=O)N(c2ccc(C(F)(F)F)c(F)c2)C[C@@H]3C)c1 [compound 22] | – |
| 156.83 | 2.34e-09 | 110 | – | – | Cc1cc(N2C[C@H](C)n3ncc(C(=O)Nc4cncc(F)c4C)c3C2=O)ccc1C(F)(F)F [compound 125] | – |
| 223.3 | 4.57e-08 | 100 | – | – | Cc1ncc(NC(=O)c2cnn3c2C(=O)N(c2ccc(C(F)(F)F)cc2)C[C@@H]3C)cn1 [compound 99] | – |
| 248.3 | 1.02e-07 | 104 | – | – | C[C@H]1CN(c2ccc(C(F)(F)F)cc2)C(=O)c2c(C(=O)Nc3ncccn3)cnn21 [compound 103] | – |
| 191.5 | 1.05e-08 | 107 | – | – | COc1cncc(NC(=O)c2cnn3c2C(=O)N(c2ccc(C(F)(F)F)c(OC)c2)C[C@@H]3C)c1 [compound 34] | – |
| 257.9 | 2.14e-07 | 110 | – | – | C[C@H]1CN(c2ccc(C(F)(F)F)cc2)C(=O)c2c(C(=O)Nc3ncc[nH]3)cnn21 [compound 142] | – |
| 161.4 | 4.37e-08 | 103 | – | – | C[C@H]1CN(c2ccc(C(F)(F)F)cc2)C(=O)c2c(C(=O)NCC3CC3)cnn21 [compound 60] | – |
| 212.39 | 9.77e-09 | 109 | – | – | COc1ccc(NC(=O)c2cnn3c2C(=O)N(c2ccc(C(F)(F)F)c(OC)n2)C[C@@H]3C)cc1 [compound 121] | – |
| 189.99 | 6.17e-09 | 110 | – | – | Cc1c(F)cncc1NC(=O)c1cnn2c1C(=O)N(c1ccc(Cl)cc1)C[C@@H]2C [compound 129] | – |
| 231.4 | 7.76e-08 | 104 | – | – | C[C@H]1CN(c2ccc(C(F)(F)F)cc2)C(=O)c2c(C(=O)NCC3CCCO3)cnn21 (stereo partly drawn) [compound 62] | – |
| 197.4 | 2.57e-09 | 118 | – | – | C[C@H]1CN(c2ccc(C(F)(F)F)c(CF)c2)C(=O)c2c(C(=O)Nc3ccncc3)cnn21 [compound 52] | – |
| 141.3 | 5.25e-09 | 118 | – | – | Cc1cc(NC(=O)c2cnn3c2C(=O)N(c2ccc(C(F)(F)F)c(CF)c2)C[C@@H]3C)ccn1 [compound 54] | – |
| 193.3 | 6.92e-09 | 108 | – | – | COc1cc(N2C[C@H](C)n3ncc(C(=O)Nc4cnccn4)c3C2=O)ccc1C(F)(F)F [compound 115] | – |
| – | – | – | 8.53 | 104 | C[C@H]1CN(c2ccc(Cl)c(Cl)c2)C(=O)c2c(C(=O)Nc3ccc(F)nc3)cnn21 [compound 56] | – |

| SMILES | melting point [°C] | IC50 [1, 2] [M] | Emax [1, 3] [%] | GTPγS - hmGluR2 anGT pIC50 ([1]; membranes with human mGlu2 receptor, glutamate ~EC80 (60 μM), pIC50 = -log IC50 (M)) | GTPγS - hmGluR2 anGT Emax ([1]; relative maximal effect: maximal % inhibition relative to the control glutamate response) [%] | Emax ([1]; read-out: GTPγS - hmGluR2 anGT Emax) [%] |
| --- | --- | --- | --- | --- | --- | --- |
| C[C@H]1CN(c2ccc(C(F)(F)F)cc2)C(=O)c2c(C(=O)Nc3ccc(S(=O)(=O)F)cc3)cnn21 [compound 167] | 205.04 | 4.27e-08 | – | – | – | 107 |
